Test results taken from ChEMBL document CHEMBL4806958, “Anti-cancer/anti-fibrosis compounds” (2020).

Molecular target: Casein kinase II subunit alpha (Homo sapiens, UniProt P68400)
Test: Inhibition of CSNK2A1(unknown origin) using Ser/Thr 11 as substrate incubated for 60 mins in presence of ATP by Z'-LYTE assay

Chain of Casein kinase II subunit alpha (P68400 whole entry): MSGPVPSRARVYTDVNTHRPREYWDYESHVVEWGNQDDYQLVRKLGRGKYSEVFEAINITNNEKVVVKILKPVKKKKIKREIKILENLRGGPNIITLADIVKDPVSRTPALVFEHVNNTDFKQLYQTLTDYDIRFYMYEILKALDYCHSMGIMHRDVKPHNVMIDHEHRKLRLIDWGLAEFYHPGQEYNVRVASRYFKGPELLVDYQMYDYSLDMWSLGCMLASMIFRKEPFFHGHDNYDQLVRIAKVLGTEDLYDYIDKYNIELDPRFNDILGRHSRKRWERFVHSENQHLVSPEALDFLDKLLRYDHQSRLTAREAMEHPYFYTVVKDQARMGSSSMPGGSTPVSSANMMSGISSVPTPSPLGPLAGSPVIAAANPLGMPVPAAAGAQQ

Structure (SMILES) | IC50
N#Cc1cc2cc(C(=O)O)ccc2c2cnccc12 | < 300 nM
O=C(O)c1ccc2c(c1)cc(Br)c1ccnc(Cl)c12 | < 300 nM
Nc1ccc(-c2cc3cc(C(=O)O)ccc3c3cnccc23)cn1 | < 300 nM
O=C(O)c1ccc2c(c1)cc(-c1ccncc1)c1ccncc12 | < 300 nM
